Key:
[1] = target: T1, Diacylglycerol O-acyltransferase 1 (Homo sapiens, UniProt O75907); assay type: tissue-based, Liver
T1 sequence (O75907 whole entry): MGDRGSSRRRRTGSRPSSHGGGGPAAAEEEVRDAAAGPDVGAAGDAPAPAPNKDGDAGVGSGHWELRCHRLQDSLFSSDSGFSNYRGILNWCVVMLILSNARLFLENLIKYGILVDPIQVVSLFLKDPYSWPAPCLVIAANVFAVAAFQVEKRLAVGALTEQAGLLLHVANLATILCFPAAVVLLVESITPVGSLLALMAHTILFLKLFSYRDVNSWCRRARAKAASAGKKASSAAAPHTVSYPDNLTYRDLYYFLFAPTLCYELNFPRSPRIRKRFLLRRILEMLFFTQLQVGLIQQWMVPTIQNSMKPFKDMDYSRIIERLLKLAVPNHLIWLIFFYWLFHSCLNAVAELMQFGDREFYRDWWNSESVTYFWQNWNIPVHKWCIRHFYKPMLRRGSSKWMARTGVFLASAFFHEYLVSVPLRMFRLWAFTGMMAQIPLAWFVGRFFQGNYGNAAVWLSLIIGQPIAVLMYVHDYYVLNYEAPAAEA

[2] = target: T2, Diacylglycerol O-acyltransferase 1 (Mus musculus, UniProt Q9Z2A7); experiment: Inhibition Assay: Â Assay buffer [20 mM HEPES (pH 7.4), 100 mM MgCl2 and 0.04% bovine serum albumin (BSA)] containing 500 uM of enzyme substrate (didecanoyl glycerol) and 7.5 uM radiolabeled acyl-CoA substrate ([14C]decanoyl-CoA) was added to each well of a phospholipid-coated radiometric assay plate.; assay type: microsomes, Liver
T2 sequence (Q9Z2A7 whole entry): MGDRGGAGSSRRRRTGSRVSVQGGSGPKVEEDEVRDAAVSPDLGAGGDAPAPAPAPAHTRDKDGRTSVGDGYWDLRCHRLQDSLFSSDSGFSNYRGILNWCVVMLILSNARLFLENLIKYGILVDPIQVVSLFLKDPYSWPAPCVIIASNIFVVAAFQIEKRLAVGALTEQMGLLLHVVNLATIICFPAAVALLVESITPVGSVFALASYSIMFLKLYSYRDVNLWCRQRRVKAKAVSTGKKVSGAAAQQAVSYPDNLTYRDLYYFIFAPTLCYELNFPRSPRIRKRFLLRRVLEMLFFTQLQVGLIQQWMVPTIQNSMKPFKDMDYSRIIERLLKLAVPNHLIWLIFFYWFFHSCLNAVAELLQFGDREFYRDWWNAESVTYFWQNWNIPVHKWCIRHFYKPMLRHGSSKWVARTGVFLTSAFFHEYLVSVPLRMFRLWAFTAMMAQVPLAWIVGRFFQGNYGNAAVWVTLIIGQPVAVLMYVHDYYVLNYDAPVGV

| SMILES | IC50 [1] [µM] | IC50 [2] [µM] |
| --- | --- | --- |
| O=C(O)CC1CCC(c2ccc(-c3ccc4nc(C(=O)NC5(c6cc(F)ccc6F)CC5)cn4c3)cc2)CC1 (stereo unspecified) | < 0.01 | < 0.01 |
| O=C(O)C[C@H]1CC[C@H](c2ccc(-c3cn4cc(C(=O)NCc5c(Cl)cccc5Cl)nc4s3)cc2)CC1 | < 0.01 | < 0.01 |
| O=C(O)C[C@H]1CC[C@H](c2ccc(-c3cn4cc(C(=O)NCc5c(F)cc(Cl)cc5F)nc4s3)cc2)CC1 | < 0.01 | < 0.01 |
| O=C(O)CC1CCC(c2ccc(-c3ccc4nc(C(=O)NCc5c(Cl)cccc5Cl)cn4c3)cc2)CC1 (stereo unspecified) | < 0.01 | < 0.05 |
| O=C(O)C[C@H]1CC[C@H](c2ccc(-c3cn4cc(C(=O)NCc5c(F)cccc5Cl)nc4s3)cc2)CC1 | < 0.01 | < 0.025 |
| O=C(O)C[C@H]1CC[C@H](c2ccc(-c3cn4cc(C(=O)NCc5ccc(OC(F)(F)F)c(Cl)c5)nc4s3)cc2)CC1 | < 0.225 | < 0.2 |
| O=C(O)CC1CCC(c2ccc(-c3ccc4nc(C(=O)NCc5c(F)cccc5F)cn4c3)cc2)CC1 (stereo unspecified) | < 0.025 | < 0.075 |
| O=C(O)CC1CCC(c2ccc(-c3ccc4nc(C(=O)NCc5c(F)cccc5Cl)cn4c3)cc2)CC1 (stereo unspecified) | < 0.01 | < 0.05 |
| O=C(O)C[C@H]1CC[C@H](c2ccc(-c3cn4cc(C(=O)Nc5cccc(Cl)c5)nc4s3)cc2)CC1 | < 0.01 | < 0.15 |
| O=C(O)C[C@H]1CC[C@H](c2ccc(-c3cn4cc(C(=O)NCc5ccc(F)c(Cl)c5)nc4s3)cc2)CC1 | < 0.01 | < 0.025 |
| O=C(O)C[C@H]1CC[C@H](c2ccc(-c3cn4cc(C(=O)NCc5c(F)cccc5F)nc4s3)cc2)CC1 | < 0.025 | < 0.025 |
| O=C(O)CC1CCC(c2ccc(-c3ccc4nc(C(=O)NCc5c(Cl)cccc5C(F)(F)F)cn4c3)cc2)CC1 (stereo unspecified) | < 0.01 | < 0.01 |
| O=C(O)CC1CCC(c2ccc(-c3cn4cc(C(=O)Nc5ccc(F)c(Cl)c5)nc4s3)cc2)CC1 (stereo unspecified) | < 0.01 | < 0.1 |
